Data: ChEMBL document CHEMBL1862790, “Optimisation of fenarimol series for the treatment of Chagas disease”

Columns and labels:
[1] = system: Trypanosoma cruzi; assay: microbe, parasite or virus in culture; assay type: functional, organism-based, Tulahuen LacZ, Clone C4; conditions: Trypanosoma cruzi, Tulahuen LacZ, Clone C4
[2] = DNDI: Cytotoxicity against L-6 rat myoblasts from skeletal muscle cells; conditions: L6 rat skeletal muscle myoblast cells
[3] = system: Trypanosoma cruzi; assay: microbe, parasite or virus in culture; assay type: functional, Tulahuen LacZ, Clone C4; conditions: Trypanosoma cruzi, Tulahuen LacZ, Clone C4

Row | SMILES | IC50 [1] [nM] | IC50 [2] [nM] | IC90 [3] [nM] | IC50 ([2]; IC50) [nM]
1 | CC(C)Oc1ccc(C(O)(c2cccnc2)c2ccccc2F)cc1 (stereo not drawn) | 3.3 | 74000 | 240 | –
2 | CC(C)CS(=O)(=O)N1CCC(NC(c2ccc(C(F)(F)F)cc2)c2cnccn2)CC1 (stereo not drawn) | 330 | – | 880 | > 100000
3 | O=S(=O)(NC(c1ccc(C(F)(F)F)cc1)c1cnccn1)c1ccccc1 (stereo not drawn) | 3650 | – | 7670 | > 100000
4 | CS(=O)(=O)N1CCC(CNC(c2ccc(C(F)(F)F)cc2)c2cnccn2)CC1 (stereo not drawn) | 450 | – | 940 | > 100000
5 | COc1ccccc1N1CCN(C(c2cccnc2)c2ccc(Cl)cc2F)CC1 (stereo not drawn) | 45 | – | 100 | 59800
6 | CC(C)CC(=O)NC(c1ccc(C(F)(F)F)cc1)c1cnccn1 (stereo not drawn) | 8910 | – | > 10000 | > 100000
7 | CC(=O)NC1CCN(C(c2ccc(C(F)(F)F)cc2)c2cnccn2)CC1 (stereo not drawn) | 1440 | – | 3170 | > 100000
8 | OC1CCN(C(c2ccc(C(F)(F)F)cc2)c2cnccn2)CC1 (stereo not drawn) | 6520 | – | > 10000 | > 100000
9 | O=C(NC1CCN(C(c2ccc(C(F)(F)F)cc2)c2cnccn2)CC1)c1ccccc1 (stereo not drawn) | 200 | – | 720 | > 100000
10 | O=C(c1ccccc1)N1CCC(NC(c2ccc(C(F)(F)F)cc2)c2cnccn2)CC1 (stereo not drawn) | 320 | – | 910 | > 100000
11 | O=S(=O)(Cc1ccccc1)N1CCC(NC(c2ccc(C(F)(F)F)cc2)c2cnccn2)CC1 (stereo not drawn) | 210 | – | 770 | > 100000
12 | O=C(NC(c1ccc(C(F)(F)F)cc1)c1cnccn1)c1ccc(C(F)(F)F)cc1 (stereo not drawn) | 590 | – | > 1000 | 61200
13 | O=S(=O)(c1ccccc1)N1CCN(C(c2ccc(Cl)cc2)c2cncnc2)CC1 (stereo not drawn) | 66 | – | 320 | > 76100
14 | O=C(C1CCCCC1)N1CCC(NC(c2ccc(C(F)(F)F)cc2)c2cnccn2)CC1 (stereo not drawn) | 200 | – | 540 | 83800
15 | CS(=O)(=O)NC1CCN(C(c2ccc(C(F)(F)F)cc2)c2cnccn2)CC1 (stereo not drawn) | 1220 | – | 3020 | > 100000
16 | CON=C(c1ccc(C(F)(F)F)cc1)c1cccnc1 | > 1000 | – | > 1000 | 70300
17 | O=C(NC1CCN(C(c2ccc(C(F)(F)F)cc2)c2cnccn2)CC1)C1CCCCC1 (stereo not drawn) | 250 | – | 870 | > 100000
18 | CC(C)CC(=O)N1CCC(NC(c2ccc(C(F)(F)F)cc2)c2cnccn2)CC1 (stereo not drawn) | 270 | – | 660 | > 100000
19 | CS(=O)(=O)N1CCC(NC(c2ccc(C(F)(F)F)cc2)c2cnccn2)CC1 (stereo not drawn) | 970 | – | 2760 | > 100000
20 | CC(C)S(=O)(=O)NC(c1ccc(C(F)(F)F)cc1)c1cnccn1 (stereo not drawn) | > 1000 | – | > 1000 | > 100000
21 | O=S(=O)(NC(c1ccc(C(F)(F)F)cc1)c1cnccn1)c1ccc(Cl)cc1 (stereo not drawn) | > 1000 | – | > 1000 | 56400
22 | OC(c1ccc(C(F)(F)F)cc1)(c1cccnc1)c1ccccc1F (stereo not drawn) | 22 | > 100000 | 210 | –
23 | O=C(Cc1ccccc1)NC(c1ccc(C(F)(F)F)cc1)c1cnccn1 (stereo not drawn) | > 1000 | – | > 1000 | > 100000
24 | O=C(C1CC1)N1CCC(NC(c2ccc(C(F)(F)F)cc2)c2cnccn2)CC1 (stereo not drawn) | 470 | – | 850 | > 100000

Row | SMILES | IC50 [1] [nM] | IC50 [2] [nM] | IC90 [3] [nM] | IC50 ([2]; IC50) [nM]
25 | CS(=O)(=O)NC(c1ccc(C(F)(F)F)cc1)c1cnccn1 (stereo not drawn) | > 10000 | – | > 10000 | > 100000
26 | O=S(=O)(NC(c1ccc(C(F)(F)F)cc1)c1cnccn1)C1CCCCC1 (stereo not drawn) | > 1000 | – | > 1000 | 85000
27 | CC(C)Oc1ccc(C(c2cccnc2)N2CCN(C(=O)C(C)C)CC2)cc1 (stereo not drawn) | 35 | – | 200 | > 100000
28 | FC(F)(F)c1ccc(C(NCC2CCCCC2)c2cnccn2)cc1 (stereo not drawn) | 390 | – | 740 | 59200
29 | CC1(C)COC(c2cccc(C(O)(c3ccc(Cl)cc3)c3cncnc3)c2)=N1 (stereo not drawn) | 500 | – | 890 | > 100000
30 | O=S(=O)(C1CCCCC1)N1CCC(NC(c2ccc(C(F)(F)F)cc2)c2cnccn2)CC1 (stereo not drawn) | 570 | – | 970 | 62600
31 | CN(CC1CCCCC1)C(c1ccc(C(F)(F)F)cc1)c1cnccn1 (stereo not drawn) | 480 | – | 820 | 55600
32 | CCS(=O)(=O)NC(c1ccc(C(F)(F)F)cc1)c1cnccn1 (stereo not drawn) | > 1000 | – | > 1000 | > 100000
33 | O=C(NC(c1ccc(C(F)(F)F)cc1)c1cnccn1)c1ccc(Cl)cc1 (stereo not drawn) | 860 | – | > 1000 | 61800
34 | CC(C)c1ccc(S(=O)(=O)NC(c2ccc(C(F)(F)F)cc2)c2cnccn2)cc1 (stereo not drawn) | > 1000 | – | > 1000 | 60000
35 | Cc1cnc(C(O)(c2ccc(Cl)cc2)c2cncnc2)cn1 (stereo not drawn) | 2110 | – | 5910 | > 100000
36 | CON=C(c1ccc(C(F)(F)F)cc1)c1cnccn1 | > 1000 | – | > 1000 | > 100000
37 | CCN1CCC(NC(c2ccc(C(F)(F)F)cc2)c2cnccn2)CC1 (stereo not drawn) | > 1000 | – | > 1000 | > 100000
38 | N#Cc1ccc(C(O)(c2ccc(Cl)cc2)c2cccnc2)c(F)c1 (stereo not drawn) | 26 | – | 110 | > 100000
39 | CC(C)(C)OC(=O)N1CCC(CNC(c2ccc(C(F)(F)F)cc2)c2cnccn2)CC1 (stereo not drawn) | 76 | – | 260 | 73300
40 | CC(C)(C)OC(=O)N1CCC(NC(c2ccc(C(F)(F)F)cc2)c2cnccn2)CC1 (stereo not drawn) | 58 | – | 140 | 62800
41 | O=S(=O)(Cc1ccccc1)NC(c1ccc(C(F)(F)F)cc1)c1cnccn1 (stereo not drawn) | > 1000 | – | > 1000 | > 100000
42 | OC(c1ccc(Cl)cc1)(c1cncnc1)c1ccc(Cl)cc1F (stereo not drawn) | 52 | – | 450 | 54100
43 | CN(C)C(=O)C1CCN(C(c2ccc(C(F)(F)F)cc2)c2cnccn2)CC1 (stereo not drawn) | 1010 | – | 3410 | > 100000
44 | CN(C)C(=O)NC(c1ccc(C(F)(F)F)cc1)c1cnccn1 (stereo not drawn) | > 1000 | – | > 1000 | > 100000
45 | O=S(=O)(NC(c1ccc(C(F)(F)F)cc1)c1cnccn1)c1ccc(C(F)(F)F)cc1 (stereo not drawn) | > 1000 | – | > 1000 | 59900
46 | CSc1ncc(C(O)(c2ccc(Cl)cc2)c2cccnc2)cn1 (stereo not drawn) | 288 | – | 600 | > 100000
47 | CN(C)CCOc1ncc(C(O)(c2ccc(Cl)cc2)c2cccnc2)cn1 (stereo not drawn) | > 1000 | – | > 1000 | > 100000
48 | N#Cc1ccc(C(O)(c2ccc(Cl)cc2)c2cccnc2)cc1 (stereo not drawn) | 59 | – | 160 | > 100000

Row | SMILES | IC50 [1] [nM] | IC50 [2] [nM] | IC90 [3] [nM] | IC50 ([2]; IC50) [nM]
49 | CN(C)C(=O)c1cccc(C(O)(c2ccc(Cl)cc2)c2cccnc2)c1 (stereo not drawn) | 180 | – | 410 | > 100000
50 | CC(C)(C)OC(=O)NC1CCN(C(c2ccc(C(F)(F)F)cc2)c2cnccn2)CC1 (stereo not drawn) | 160 | – | 400 | 56700
51 | O=S(=O)(c1ccccc1)N1CCC(NC(c2ccc(C(F)(F)F)cc2)c2cnccn2)CC1 (stereo not drawn) | 170 | – | 320 | > 100000
52 | O=C(Cc1ccccc1)N1CCC(NC(c2ccc(C(F)(F)F)cc2)c2cnccn2)CC1 (stereo not drawn) | 540 | – | 950 | 70500
53 | O=S(=O)(c1ccc(Cl)cc1)N1CCC(NC(c2ccc(C(F)(F)F)cc2)c2cnccn2)CC1 (stereo not drawn) | 330 | – | 910 | > 100000
54 | O=C(NC(c1ccc(C(F)(F)F)cc1)c1cnccn1)c1ccccc1 (stereo not drawn) | > 1000 | – | > 1000 | > 100000
55 | NC(=O)c1ccc(C(O)(c2ccc(Cl)cc2)c2cccnc2)c(F)c1 (stereo not drawn) | 660 | – | 790 | > 100000
56 | Fc1ccccc1C(c1ccc(C(F)(F)F)cc1)c1cccnc1 (stereo not drawn) | 150 | 64000 | 510 | –
57 | CC(=O)N1CCC(NC(c2ccc(C(F)(F)F)cc2)c2cnccn2)CC1 (stereo not drawn) | 3050 | – | 7810 | > 100000
58 | CC(C)C(=O)NC(c1ccc(C(F)(F)F)cc1)c1cnccn1 (stereo not drawn) | > 10000 | – | > 10000 | > 100000
59 | CC(C)CNC(c1ccc(C(F)(F)F)cc1)c1cnccn1 (stereo not drawn) | 800 | – | 2100 | > 100000
60 | OC(c1ccc(Cl)cc1)(c1cncnc1)c1cscn1 (stereo not drawn) | 251 | – | 650 | > 100000
61 | CC(C)C(=O)N1CCN(C(c2ccc(Cl)cc2)c2cncnc2)CC1 (stereo not drawn) | 370 | – | 940 | > 100000
62 | CC(C)CS(=O)(=O)NC(c1ccc(C(F)(F)F)cc1)c1cnccn1 (stereo not drawn) | > 1000 | – | > 1000 | > 100000
63 | O=C(NC(c1ccc(C(F)(F)F)cc1)c1cnccn1)C1CC1 (stereo not drawn) | > 10000 | – | > 10000 | > 100000
64 | OC(c1ccc(Cl)cc1)(c1cccnc1)c1cncs1 (stereo not drawn) | 140 | – | 500 | > 100000
65 | FC(F)(F)c1ccc(C(NCC2CCCCC2)c2cccnc2)cc1 (stereo not drawn) | 110 | – | 220 | 54000
66 | O=C(NC(c1ccc(C(F)(F)F)cc1)c1cnccn1)C1CCCCC1 (stereo not drawn) | 1570 | – | 4790 | > 100000
67 | CCS(=O)(=O)N1CCN(C(c2ccc(Cl)cc2)c2cncnc2)CC1 (stereo not drawn) | 260 | – | 850 | > 100000
68 | CC(C)C(=O)N1CCN(C(c2cccnc2)c2ccc(Cl)cc2F)CC1 (stereo not drawn) | 62 | – | 220 | > 100000
69 | CCC(=O)NC(c1ccc(C(F)(F)F)cc1)c1cnccn1 (stereo not drawn) | > 1000 | – | > 1000 | > 100000
70 | CC(=O)NC(c1ccc(C(F)(F)F)cc1)c1cnccn1 (stereo not drawn) | > 10000 | – | > 10000 | > 100000
71 | NC(=O)C1CCN(C(c2ccc(C(F)(F)F)cc2)c2cnccn2)CC1 (stereo not drawn) | 6410 | – | > 10000 | > 100000
